Literature values as cited in patent US7364905B2, “Apparatus and method for high throughput analysis of compound-membrane interactions” (TechElan, LLC, priority 2001, dated 2008).

Tested on: Caco-2 cells
Conditions: Caco-2 cell mono-layer versus gut

## OC[C@@H](O)[C@@H](O)[C@H](O)[C@H](O)CO [mannitol]
  rate of permeation through the cell mono-layer relative to through the gut: fifty to three hundred and sixty times lower
